What was measured:
[1] = molecular target: T1, EphA1 (Homo sapiens, UniProt P21709); assay: In vitro kinase activity (Millipore KinaseProfiler): EphA1; type: biochemical; conditions: no head or unit printed
T1 construct: purchased Millipore (KinaseProfiler service)
Method: (§1) All cells were grown in DMEM+10% FCS. ACHN and ACHN shVHL were a kind gift from George V. Thomas (UCLA). HIF overexpressing clones were described previously. Transfection of RNA oligos were performed with DnarmaFECT Reagent 1 (Dharmcon), according to manufacturer's directions. ON-TARGETplus SMART pools against HIF-1β/ARNT were purchased from Dharmacon. Glut1 was detected with anti-GLUT1 antibody from NeoMarkers/LabVision/Fisher. Pyruvate/lactate levels and hexokinase activity were both measured by fluorometric assay (BioVision and Sigma-Aldrich, respectively). ATP levels were measured by bioluminescence assay (ATP Determination Kit from Molecular Probes/Invitrogen). In vitro kinase activities were performed by Millipore KinaseProfiler. Affi-Gel 10 (BioRad) activated affinity media was coupled to analogs to generate immobilized affinity linkers.
(§2) We next wanted to investigate the differential glucose uptake between RCCs with and without VHL treated with compound 47 that subsequently lead to the selective death of VHL-deficient cells. We first examined the message levels of the two main glucose transporters, GLUT1 and GLUT2 by quantitative real-time PCR. GLUT1 is an inducible, high-affinity glucose transporter, while GLUT2 is the glucose transporter responsible for basal glucose uptake. […] Cells deficient in VHL had very low levels of GLUT2 that could barely be detected (FIG. 3J). […]

[2] = molecular target: T2, Syk (Homo sapiens, UniProt P43405); assay: In vitro kinase activity (Millipore KinaseProfiler): Syk; type: biochemical; conditions: no head or unit printed
T2 construct: purchased Millipore (KinaseProfiler service)
Method: as §1, §2

T1 sequence (P21709 26-976, species assumed): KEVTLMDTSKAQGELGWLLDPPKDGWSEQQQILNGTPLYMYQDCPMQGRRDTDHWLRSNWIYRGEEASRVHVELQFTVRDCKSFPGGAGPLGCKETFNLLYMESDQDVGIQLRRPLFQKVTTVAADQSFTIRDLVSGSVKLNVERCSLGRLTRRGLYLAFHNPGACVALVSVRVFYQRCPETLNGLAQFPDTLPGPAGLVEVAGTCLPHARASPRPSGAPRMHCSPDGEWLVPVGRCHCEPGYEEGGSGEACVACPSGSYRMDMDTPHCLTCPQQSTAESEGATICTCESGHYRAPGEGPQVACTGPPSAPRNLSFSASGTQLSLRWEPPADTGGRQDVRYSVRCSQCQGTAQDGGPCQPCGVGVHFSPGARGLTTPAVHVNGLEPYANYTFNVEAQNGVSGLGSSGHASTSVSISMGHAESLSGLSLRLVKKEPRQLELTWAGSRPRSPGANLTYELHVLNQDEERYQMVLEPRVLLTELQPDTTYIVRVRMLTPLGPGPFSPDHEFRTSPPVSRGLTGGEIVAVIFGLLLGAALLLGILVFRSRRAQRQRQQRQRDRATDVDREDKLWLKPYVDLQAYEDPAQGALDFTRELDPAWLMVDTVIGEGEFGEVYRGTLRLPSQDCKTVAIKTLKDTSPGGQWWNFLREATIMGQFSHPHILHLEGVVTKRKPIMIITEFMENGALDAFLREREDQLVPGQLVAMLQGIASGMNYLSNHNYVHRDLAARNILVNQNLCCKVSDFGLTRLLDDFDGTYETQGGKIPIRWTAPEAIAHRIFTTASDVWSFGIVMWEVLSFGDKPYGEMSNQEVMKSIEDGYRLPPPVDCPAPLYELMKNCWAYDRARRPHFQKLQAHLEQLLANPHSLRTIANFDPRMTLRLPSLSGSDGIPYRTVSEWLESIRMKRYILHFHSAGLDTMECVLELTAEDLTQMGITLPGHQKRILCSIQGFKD

SMILES: CC(C)(C)c1ccc(S(=O)(=O)NCc2ccc(C(=O)Nc3cccnc3)cc2)cc1 [Example 38, 4-((4-tert-Butylphenylsulfonamido)methyl)-N-(pyridin-3-yl)benzamide]
- EphA1 kinase activity [1]: 102
- Syk kinase activity [2]: 94

Reference: patent publication US20120225862A1, “HETEROARYL BENZAMIDES, COMPOSITIONS AND METHODS OF USE” (AUCKLAND UNIVSERVICES LIMITED, priority 2009, published 2012)
